Measurements from ChEMBL document CHEMBL4130586, “Antiprotozoal Sesquiterpene Lactones and Other Constituents from Tarchonanthus camphoratus and Schkuhria pinnata” (J Nat Prod, 2018).

Legend:
[1] = tested on: L6; assay: Cytotoxicity against rat L6 cells after 72 hrs by alamar blue staining based fluorescence assay; type: cell-based; conditions: L6, 72 h
[2] = tested on: Trypanosoma brucei rhodesiense; assay: Antitrypanosomal activity against Trypanosoma brucei rhodesiense STIB 900 bloodstream forms after 72 hrs by alamar blue staining based fluorescence assay; type: functional, organism-based; conditions: STIB 900, 72 h
[3] = Selectivity index, ratio of IC50 for rat L6 cells to IC50 for Trypanosoma brucei rhodesiense STIB 900 bloodstream forms; type: toxicity; conditions: read-out: Ratio IC50

Row | SMILES | IC50 [1] [µM] | IC50 [2] [µM] | selectivity ratio [3]
1 | C=C1C(=O)O[C@@H]2/C=C(\C)[C@@H](O)C/C=C(\C)C[C@@H](OC(=O)/C(C)=C/CO)[C@@H]12 | 51.7 | 5.4 | 9.6
2 | C=C1C(=O)O[C@H]2[C@H]1[C@H](OC(=O)/C(=C/CO)CO)CC(=C)[C@@H]1CC(=O)C(C)[C@H]21 (stereo not given in full) | 12.3 | 0.6 | 19.2
3 | C=C1C(=O)O[C@@H]2/C=C(/C)[C@@H](OC(C)=O)C/C=C(\C)C[C@@H](OC(=O)/C(C)=C/CO)[C@@H]12 | 7.94 | 1.7 | 4.6
4 | COc1ccc(-c2cc(=O)c3c(O)c(OC)c(O)cc3o2)cc1 [PECTOLINARIGENIN] | 20.2 | 6.1 | 3.3
5 | C=C1C(=O)O[C@@H]2/C=C(\C)CC/C=C(\C)C[C@@H](OC(=O)/C(=C/CO)CO)[C@@H]12 | 15.5 | 1.2 to 1.4 | 11.1
6 | C=C1C(=O)O[C@@H]2/C=C(/C)[C@@H](OC(C)=O)C/C=C(\C)C[C@@H](OC(=O)/C(=C/CO)CO)[C@@H]12 | 7.8 | 1.1 | 6.9
7 | C=C1C(=O)O[C@@H]2/C=C(/C)[C@@H](O)C[C@H]3O[C@]3(C)C[C@@H](OC(=O)/C(=C/COC(=O)C(O)C(C)C)CO)[C@@H]12 (stereo not given in full) | 14.4 | 0.91 | 15.8
8 | C=C1C(=O)O[C@@H]2/C=C(/C)[C@@H](OC(C)=O)C/C=C(\C)C[C@@H](OC(=O)C3=CC(O)OC3)[C@@H]12 (stereo not given in full) | 4.1 | 0.35 | 11.5
9 | COc1cc(CCCO)cc(O)c1OC | 149 | 9.8 | 15.2
10 | C=C1C(=O)O[C@@H]2/C=C(\C)[C@@H](O)C/C=C(\C)C[C@@H](OC(=O)/C(=C/COC(=O)C(O)C(C)CC)CO)[C@@H]12 (stereo not given in full) | 42.3 | 4 | 10.5
11 | C=C1C(=O)O[C@@H]2/C=C(/C)[C@@H](OC(=O)C(O)C(C)C)C/C=C(\C)C[C@@H](OC(=O)/C(=C/CO)CO)[C@@H]12 (stereo not given in full) | 11 | 0.82 | 13.4
12 | C=C1C(=O)O[C@@H]2/C=C(/C)[C@@H](OC(=O)C(O)C(C)C)C/C=C(\C)C[C@@H](OC(=O)c3ccoc3)[C@@H]12 (stereo not given in full) | 3.9 | 0.13 | 29.7
13 | C=C1C(=O)O[C@H]2[C@H]1[C@H](OC(=O)/C(=C/COC(=O)C(O)C(C)C)CO)C[C@]1(C)[C@@H]2[C@H](C)C(=O)C[C@H]1O (stereo not given in full) | 39.7 | 2.7 | 14.6
14 | C=C1C(=O)O[C@@H]2/C=C(/C)[C@@H]3C/C=C(/C[C@@H](OC(=O)/C(=C/CO)CO)[C@@H]12)C[C@@](O)(C(C)C)C(=O)O3 | 3.8 | 0.9 | 4.1
15 | C=C1C(=O)O[C@@H]2/C=C(\C)[C@@H](O)C/C=C(\C)C[C@@H](OC(=O)/C(=C/COC(=O)C(O)C(C)C)CO)[C@@H]12 (stereo not given in full) | 34.1 | 2.6 | 13
16 | C=C1C(=O)O[C@@H]2/C=C(/C)[C@@H](OC(C)=O)C[C@H]3O[C@]3(C)C[C@@H](OC(=O)/C(=C/CO)CO)[C@@H]12 | 14.6 | 0.92 | 15.8
17 | C=C1C(=O)O[C@@H]2/C=C(/C)[C@@H](OC(C)=O)C/C=C(\C)C[C@@H](OC(=O)c3ccoc3)[C@@H]12 | 2.1 | 0.1 | 20.5
18 | C=C1C[C@@H](OC(=O)/C(=C/CO)CO)[C@H]2C(=C)C(=O)O[C@@H]2[C@H]2C(C)=C[C@@H](O)[C@@H]12 | 42.8 | 7.3 | 5.9
19 | C=C1C(=O)O[C@@H]2/C=C(/C)[C@@H](OC(C)=O)C/C=C(\C)C[C@@H](OC(=O)/C(=C\CO)CO)[C@@H]12 | 54.6 | 1.7 | 31.1
20 | C=C1C(=O)O[C@@H]2C3O[C@]3(C)CC/C=C(\C)CC[C@@H]12 (stereo not given in full) | 7.2 | 0.39 | 18.6
